# Data from BigSolDB 2.1.
smiles,measurement,setting,value
O=C1CCC(=O)O1,solubility (mole fraction),"in acetone, 278.15 K",0.0721
same,solubility (mole fraction),"in acetone, 283.15 K",0.0863
same,solubility (mole fraction),"in acetone, 288.15 K",0.103
same,solubility (mole fraction),"in acetone, 293.15 K",0.121
same,solubility (mole fraction),"in acetone, 298.15 K",0.143
same,solubility (mole fraction),"in acetone, 303.15 K",0.166
same,solubility (mole fraction),"in acetonitrile, 278.15 K",0.114
same,solubility (mole fraction),"in acetonitrile, 283.15 K",0.121
same,solubility (mole fraction),"in acetonitrile, 288.15 K",0.129
same,solubility (mole fraction),"in acetonitrile, 293.15 K",0.137
same,solubility (mole fraction),"in acetonitrile, 298.15 K",0.146
same,solubility (mole fraction),"in acetonitrile, 303.15 K",0.156
same,solubility (mole fraction),"in ethyl acetate, 278.15 K",0.0485
same,solubility (mole fraction),"in ethyl acetate, 283.15 K",0.0544
same,solubility (mole fraction),"in ethyl acetate, 288.15 K",0.0611
same,solubility (mole fraction),"in ethyl acetate, 293.15 K",0.0684
same,solubility (mole fraction),"in ethyl acetate, 298.15 K",0.0771
same,solubility (mole fraction),"in ethyl acetate, 303.15 K",0.0853
same,solubility (mole fraction),"in isopropanol, 278.15 K",0.0502
same,solubility (mole fraction),"in isopropanol, 283.15 K",0.0562
same,solubility (mole fraction),"in isopropanol, 288.15 K",0.0632
same,solubility (mole fraction),"in isopropanol, 293.15 K",0.0705
same,solubility (mole fraction),"in isopropanol, 298.15 K",0.0793
same,solubility (mole fraction),"in isopropanol, 303.15 K",0.0889
